Patent publication US11045409B2, “Composition comprising a water-insoluble solid organic UV-screening agent and a compound capable of establishing hydrogen bonds” (L'OREAL, priority 2013, dated 2021)

Experiment: Maximum solubility of UV-screening agents in compound (B)/isododecane mixtures
Format: physicochemical
Conditions: sonication 45° C. 30 minutes, stable two months at room temperature
Protocol: Solubility Test of the Screening Agents (A) in Mixtures of Compounds (B) and of Isododecane —
300 mg of water-insoluble solid UV-screening agent (A) or of UV-screening agent outside the invention were weighed out in a 10 ml flask, and compound (B) (as a mixture at 50% by weight in isododecane) was then added in increasing amounts until dissolution of the screening agent was complete. The dissolution was performed by sonication at 45° C. for 30 minutes, followed by cooling to room temperature. […] The maximum solubility was given in w/w %, which represents the mass percentage of UV-screening agent in the (B)/isododecane/UV-screening agent mixture. The maximum solubility of the solid screening agent (A) in a solution of isododecane alone (Bo) was also measured as reference.

[1] = in compound (B1) at 50% by weight in isododecane
[2] = in compound (B2) at 50% by weight in isododecane
[3] = in isododecane alone (B0), reference

Maximum solubility of the UV-screening agent [1] | Maximum solubility of the UV-screening agent [2] | Maximum solubility of the UV-screening agent [3] | Compound
15 w/w % | 15 w/w % | 1 w/w % | COc1ccc(C(=O)CC(=O)c2ccc(C(C)(C)C)cc2)cc1 [UV-screening agent No. 1, Butylmethoxydibenzoylmethane]
5 w/w % | 5 w/w % | 1 w/w % | CCCCC(CC)COc1ccc(-c2nc(-c3ccc(OC)cc3)nc(-c3ccc(OCC(CC)CCCC)cc3O)n2)c(O)c1 (stereo not drawn) [UV-screening agent No. 8, 2,4-bis{[4-(2-ethylhexyloxy)-2-hydroxy]phenyl}-6-(4-methoxyphenyl)-1,3,5-triazine]

The remaining lines, values behind:

Compound | Maximum solubility of the UV-screening agent [1] | Maximum solubility of the UV-screening agent [2] | Maximum solubility of the UV-screening agent [3]
CCCCCCCCOC(=O)/C(C#N)=C\C=C\N(CCO)CCO [UV-screening agent No. 3] | 5 w/w % | 2.5 w/w % | insoluble
CCCCCCCCOC(=O)/C(C#N)=C\C=C\N(CC)CC [UV-screening agent No. 4] | 2.5 w/w % | 5 w/w % | insoluble
Cc1cc(CC(C)C[Si](C)(O[Si](C)(C)C)O[Si](C)(C)C)c(O)c(-n2nc3ccccc3n2)c1 (stereo not drawn) [UV-screening agent No. 2, Drometrizole Trisiloxane] | 30 w/w % | 30 w/w % | 5 w/w %
